Where two headings read alike, the source gives them in different places.
Tests used:
[1] = Metabolic stability in human liver microsomes, unbound intrinsic clearance; type: in vitro ADME; conditions: pH 7.4
Method: Samples of the tested compounds (0.5 μM) were preincubated together with human liver microsomes (0.25 mg of microsomal protein/mL) in 0.05 M potassium phosphate buffer of pH 7.4 in microtiter plates at 37° C. for 5 minutes. The reaction was started by adding NADPH (1.0 mM). After 0, 5, 10, 15, 20 and 30 minutes, an aliquot was removed, the reaction was cooled and stopped by adding twice the amount of quench solution consisting of acetonitrile/methanol 1:1, and containing 0.2 μM carbutamide as internal standard. The samples were frozen until analyzed. The remaining concentration of undegraded test substance was determined by liquid chromatography-tandem mass spectrometry (LC-MS/MS). The half-life (t1/2) was determined from the gradient of the ratio of the signal of (test substance/internal standard)/unit time plot, allowing the calculation of the half-life of the test substance, assuming first order kinetics, from the decrease in the concentration of the compound with time. The microsomal clearance (mClint) was calculated as follows: mClint=((ln(2)/t ½)/Microsomal Protein Concentration (mg/ml))*1000, leading to the unit of uL/min/mg. The scaled clearance (mClin_scaled) was calculated as mCLint_scaled=m CLint*(Microsomal Yield (mg/kg BW))/1000000*60, leading to the units L/h/kg. The Microsomal Yield is defined by the specifics of the used microsomes. Calculations were modified from references: Di, The Society for Biomolecular Screening, 2003, 453-462; Obach, D M D, 1999 vol 27. N 11, 1350-1359.
Calculation of Unbound Intrinsic Clearance
C1int unbound=C1 int/fu mic

[2] = molecular target: T1, 5-HT2C receptor (Homo sapiens, UniProt P28335); assay: Human 5-HT2C functional assay (beta-arrestin2 recruitment, U2OS_HTR2C_β-Arrestin cells); type: cell-based; conditions: for Emax: relative efficacy vs maximal effect induced by 5-HT (defined as 100%)
T1 construct: host or cells: U2OS
Method: 1. Human 5-HT2C Functional Assay
The functional activity of compounds of formula I was assayed by incubation with U2OS_HTR2C_β-Arrestin cells (DiscoverX, 93-0289C3) to induce beta-arrestin2 recruitment to the 5-HT2C receptor. The agonist-induced recruitment and proximity of the receptor and beta-arrestin2 leads to complementation and formation of active β-galactosidase. The enzyme complementation results in enzyme activity, which is measured following the termination of the agonist incubation using DiscoveRx's detection reagent, which contains a chemiluminescent substrate which produces a high intensity signal. Cells were plated and a medium-change to a 1% serum containing medium was performed 24 h later. The next day, test compounds were added and incubated for 1.5 h before addition of detection reagent.
The response produced was measured and compared with the response produced by 10 [mu]M 5-HT or the maximal effect induced by 5-HT (defined as 100%) to which it was expressed as a percentage response (relative efficacy).

[3] = molecular target: T2, human 5-HT2A receptor (Homo sapiens, UniProt P28223); assay: Human 5-HT2A functional assay (calcium mobilisation in CHO-K1 cells, FLIPR); type: cell-based; conditions: based on agonism: EC50 5-HT2A/EC50 5-HT2C
T2 construct: expressed in transfected cells; host or cells: CHO-K1
Method: 2. Human 5-HT2A Functional Assay
Functional activity on the 5-HT2A receptor was determined by testing the effect of the compounds I on calcium mobilisation in CHO-K1 cells, stably transfected with human 5-HT2A receptor. Cells were seeded into sterile black 384-well plates with clear bottom at 25,000 cells/well in a volume of 25 μl and grown for 5-6 hours at 37° C., in 5% CO2 in tissue culture medium (“Ultra CHO” by LONZA), containing 1% dialysed FCS and 50 μg/ml gentamicin (Invitrogen). After this incubation, medium was replaced by a serum free version of the same tissue culture medium followed by incubation overnight at 37° C. and in 5% CO2. Cells were then loaded with a fluorescent calcium-sensitive dye in the presence of 0.07% probenecid for an hour at 37° C., according to the manufacturer's protocol (Ca5-Assay Kit, Molecular Devices), followed by an additional 60 min incubation at room temperature. Serial compound dilutions (final concentrations of 10^−10 to 10^−5M, prepared in HBSS+50 mM HEPES) were first added to the cells alone (“first addition” to assess agonism on the 5-HT2A receptor), then after 8 min, serotonin was added to the same wells at a final concentration of 3×10^−8 M (“second addition” to see potential antagonistic effect) and the maximal calcium response was determined using a FLIPR® Tetra instrument (Molecular Devices) in each of the two steps. The relative efficacy of the compounds was calculated as a percentage of the maximal effect induced by serotonin alone (defined as 100%). To determine EC50/IC50 values, concentration-response curves were fitted using a four-parameter logistic equation (IDBS Biobookml). Kb values were calculated from IC50 values, according to Cheng & Prusoff

[4] = molecular target: T3, human 5-HT2B receptor (Homo sapiens, UniProt P41595); assay: Human 5-HT2B functional assay (calcium mobilisation in CHO-FlpIn cells, FLIPR); type: cell-based; conditions: based on agonism: EC50 5-HT2B/EC50 5-HT2C
T3 construct: expressed in transfected cells; host or cells: CHO-FlpIn
Method: 3. Human 5-HT2B Functional Assay
Functional activity on the 5-HT2B receptor was determined by testing the effect of the compounds I on calcium mobilisation in CHO-FlpIn cells, stably transfected with human 5-HT2B receptor. Cells were seeded into sterile black 384-well plates with clear bottom at 30,000 cells/well in a volume of 25 μl and grown overnight at 37° C., in 5% CO2 in tissue culture medium (“CHO-S-SFM II” by Invitrogen), containing 1% dialysed FCS and 50 μg/ml gentamicin (Invitrogen). On the next morning, medium was replaced by a serum free version of the same tissue culture medium for a further incubation for 4 hours at 37° C. and in 5% CO2. Cells were then loaded with a fluorescent calcium-sensitive dye in the presence of 0.07% probenecid for an hour at 37° C., according to the manufacturer's protocol (Ca5-Assay Kit, Molecular Devices), followed by an additional 60 min incubation at room temperature. Serial compound dilutions (final concentrations of 10^−10 to 10^−5M, prepared in HBSS+50 mM HEPES) were first added to the cells alone (“first addition” to assess agonism on the 5-HT2B receptor), then after 8 min, serotonin was added to the same wells at a final concentration of 10^−8 M (“second addition” to see potential antagonistic effect) and the maximal calcium response was determined using a FLIPR® Tetra instrument (Molecular Devices) in each of the two steps. The relative efficacy of the compounds was calculated as a percentage of the maximal effect induced by serotonin alone (defined as 100%). To determine EC50/IC50 values, concentration-response curves were fitted using a four-parameter logistic equation (IDBS Biobookml). Kb values were calculated from IC50 values, according to Cheng & Prusoff

[5] = liver microsomes, unbound intrinsic clearance (human), Clint unbound = Cl int/fu mic, read-out: Cl int, mic unb. (h)
[6] = Potency (EC50 5-HT2C) in functional assay, agonism, read-out: EC50 5-HT2C

T2 sequence (P28223 whole entry): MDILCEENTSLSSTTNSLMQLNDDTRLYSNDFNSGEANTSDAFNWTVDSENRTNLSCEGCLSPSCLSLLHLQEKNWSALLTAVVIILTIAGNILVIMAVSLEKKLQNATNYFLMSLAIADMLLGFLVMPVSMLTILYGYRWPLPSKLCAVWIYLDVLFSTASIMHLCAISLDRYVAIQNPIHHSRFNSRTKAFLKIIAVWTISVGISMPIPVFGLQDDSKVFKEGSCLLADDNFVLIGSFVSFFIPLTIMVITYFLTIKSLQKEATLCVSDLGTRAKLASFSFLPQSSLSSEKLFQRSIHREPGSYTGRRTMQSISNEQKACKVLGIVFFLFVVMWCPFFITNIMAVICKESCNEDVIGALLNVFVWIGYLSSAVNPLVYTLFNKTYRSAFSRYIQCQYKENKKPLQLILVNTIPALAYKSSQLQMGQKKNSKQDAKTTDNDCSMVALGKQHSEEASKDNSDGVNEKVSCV
T1 sequence (P28335 33-458): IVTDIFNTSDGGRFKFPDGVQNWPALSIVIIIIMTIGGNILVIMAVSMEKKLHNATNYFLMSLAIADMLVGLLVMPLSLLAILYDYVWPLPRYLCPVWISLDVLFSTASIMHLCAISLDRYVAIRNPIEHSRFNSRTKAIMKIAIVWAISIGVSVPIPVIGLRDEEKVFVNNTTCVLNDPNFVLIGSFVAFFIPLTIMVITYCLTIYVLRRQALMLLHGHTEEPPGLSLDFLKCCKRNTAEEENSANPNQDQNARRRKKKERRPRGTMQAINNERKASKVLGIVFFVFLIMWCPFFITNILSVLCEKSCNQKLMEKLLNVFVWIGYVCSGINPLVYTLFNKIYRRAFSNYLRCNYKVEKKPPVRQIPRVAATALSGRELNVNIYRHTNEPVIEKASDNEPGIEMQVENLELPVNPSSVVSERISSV
T1 sequence (P32121 whole entry partner): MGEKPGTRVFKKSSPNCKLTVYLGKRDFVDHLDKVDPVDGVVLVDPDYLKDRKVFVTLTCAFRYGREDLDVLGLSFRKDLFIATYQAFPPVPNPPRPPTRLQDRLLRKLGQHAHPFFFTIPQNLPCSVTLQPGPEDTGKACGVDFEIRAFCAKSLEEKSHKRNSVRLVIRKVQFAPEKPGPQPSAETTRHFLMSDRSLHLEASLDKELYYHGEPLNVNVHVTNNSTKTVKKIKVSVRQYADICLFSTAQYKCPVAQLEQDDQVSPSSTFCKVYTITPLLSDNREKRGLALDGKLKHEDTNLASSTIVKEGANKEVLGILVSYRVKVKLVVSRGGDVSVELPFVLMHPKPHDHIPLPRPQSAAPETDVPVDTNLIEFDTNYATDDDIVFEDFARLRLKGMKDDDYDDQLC
T3 sequence (P41595 whole entry): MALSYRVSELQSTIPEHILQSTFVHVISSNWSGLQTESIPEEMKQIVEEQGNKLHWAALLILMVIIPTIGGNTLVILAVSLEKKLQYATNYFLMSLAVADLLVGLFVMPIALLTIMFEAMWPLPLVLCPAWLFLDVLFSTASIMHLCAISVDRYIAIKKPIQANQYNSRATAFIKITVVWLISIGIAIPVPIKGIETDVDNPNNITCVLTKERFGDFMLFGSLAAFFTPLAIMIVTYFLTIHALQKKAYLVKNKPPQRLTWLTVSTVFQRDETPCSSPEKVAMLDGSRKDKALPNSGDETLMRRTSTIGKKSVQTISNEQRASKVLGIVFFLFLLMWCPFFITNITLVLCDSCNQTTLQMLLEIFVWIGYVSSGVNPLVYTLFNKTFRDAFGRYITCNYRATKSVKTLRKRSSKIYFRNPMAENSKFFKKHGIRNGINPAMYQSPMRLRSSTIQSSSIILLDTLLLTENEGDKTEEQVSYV

COC[C@H]1C[C@@H]2CNCCN2c2cccc(Cl)c2O1.O=C(O)C(F)(F)F [Example 2, (4aR,6R)-8-Chloro-6-(methoxymethyl)-2,3,4,4a,5,6-hexahydro-1H-pyrazino[2,1-d][1,5]benzoxazepine; 2,2,2-trifluoroacetic acid]
CLint scaled at 0.5 μM [1, 5]: < 83.3 mL/min/kg | EC50 [2, 6]: 20 to 200 nM | Emax [2]: 50 to 70% | Selectivity over 5-HT2A [3]: +++ (>100) | Selectivity over 5-HT2B [4]: +++ (>100)

COC[C@@H]1C[C@@H]2CNCCN2c2ccccc2O1.O=C(O)C(F)(F)F [Example 3, (4aR,6S)-6-(Methoxymethyl)-2,3,4,4a,5,6-hexahydro-1H-pyrazino[2,1-d][1,5]benzoxazepine; 2,2,2-trifluoroacetic acid]
CLint scaled at 0.5 μM ([1]; human, microsomes): < 83.3 mL/min/kg | EC50 [2]: 200 to 1000 nM | Emax [2]: 50 to 70% | Selectivity over 5-HT2A [3]: + (from 10 to 30) | Selectivity over 5-HT2B [4]: + (from 10 to 30)

COC[C@@H]1C[C@@H]2CNCCN2c2ccc(F)c(Cl)c2O1.Cl [Example 5, (4aR,6S)-8-Chloro-9-fluoro-6-(methoxymethyl)-2,3,4,4a,5,6-hexahydro-1H-pyrazino[2,1-d][1,5]benzoxazepine hydrochloride]
CLint scaled at 0.5 μM [1, 5]: < 83.3 mL/min/kg | EC50 [2, 6]: < 20 nM | Emax [2]: > 70% | Selectivity over 5-HT2A [3]: +++ (>100) | Selectivity over 5-HT2B [4]: + (from 10 to 30)

COC[C@@H]1C[C@@H]2CNCCN2c2cccc(C(F)F)c2O1.Cl [Example 6, (4aR,6S)-8-(Difluoromethyl)-6-(methoxymethyl)-2,3,4,4a,5,6-hexahydro-1H-pyrazino[2,1-d][1,5]benzoxazepine hydrochloride]
CLint scaled at 0.5 μM [1, 5]: < 83.3 mL/min/kg | EC50 [2, 6]: < 20 nM | Emax [2]: > 70% | Selectivity over 5-HT2A [3]: +++ (>100) | Selectivity over 5-HT2B [4]: ++ (from >30 to 100)

COC[C@@H]1C[C@@H]2CNCCN2c2cc(F)cc(Cl)c2O1.Cl [Example 7, (4aR,6S)-8-Chloro-10-fluoro-6-(methoxymethyl)-2,3,4,4a,5,6-hexahydro-1H-pyrazino[2,1-d][1,5]benzoxazepine hydrochloride]
CLint scaled at 0.5 μM [1, 5]: < 83.3 mL/min/kg | EC50 [2, 6]: < 20 nM | Emax [2]: > 70% | Selectivity over 5-HT2A [3]: +++ (>100) | Selectivity over 5-HT2B [4]: +++ (>100)

COC[C@@H]1C[C@@H]2CNCCN2c2cc(F)ccc2O1.Cl [Example 8, (4aR,6S)-10-Fluoro-6-(methoxymethyl)-2,3,4,4a,5,6-hexahydro-1H-pyrazino[2,1-d][1,5]benzoxazepine hydrochloride]
CLint scaled at 0.5 μM [1, 5]: < 83.3 mL/min/kg | EC50 [2, 6]: 20 to 200 nM | Emax [2]: > 70% | Selectivity over 5-HT2A [3]: +++ (>100) | Selectivity over 5-HT2B [4]: +++ (>100)

COC[C@@H]1C[C@@H]2CNCCN2c2cc(F)cc(C(F)F)c2O1.Cl [Example 9, (4aR,6S)-8-(Difluoromethyl)-10-fluoro-6-(methoxymethyl)-2,3,4,4a,5,6-hexahydro-1H-pyrazino[2,1-d][1,5]benzoxazepine hydrochloride]
CLint scaled at 0.5 μM [1, 5]: < 83.3 mL/min/kg | EC50 [2, 6]: < 20 nM | Emax [2]: > 70% | Selectivity over 5-HT2A [3]: +++ (>100) | Selectivity over 5-HT2B [4]: +++ (>100)

COC[C@@H]1C[C@@H]2CNCCN2c2cc(Cl)ccc2O1.Cl [Example 10, (4aR,6S)-10-Chloro-6-(methoxymethyl)-2,3,4,4a,5,6-hexahydro-1H-pyrazino[2,1-d][1,5]benzoxazepine hydrochloride]
CLint scaled at 0.5 μM [1, 5]: 83.3 to 833 mL/min/kg | EC50 [2, 6]: 20 to 200 nM | Selectivity over 5-HT2A [3]: ++ (from >30 to 100) | Selectivity over 5-HT2B [4]: ++ (from >30 to 100)

COC[C@@H]1C[C@@H]2CNCCN2c2cc(F)cc(F)c2O1.Cl [Example 11, (4aR,6S)-8,10-Difluoro-6-(methoxymethyl)-2,3,4,4a,5,6-hexahydro-1H-pyrazino[2,1-d][1,5]benzoxazepine hydrochloride]
CLint scaled at 0.5 μM [1, 5]: < 83.3 mL/min/kg | EC50 [2, 6]: 20 to 200 nM | Emax [2]: > 70% | Selectivity over 5-HT2A [3]: +++ (>100) | Selectivity over 5-HT2B [4]: ++ (from >30 to 100)

COC[C@@H]1C[C@@H]2CNCCN2c2cccc(C#N)c2O1.Cl [Example 12, (4aR,6S)-6-(Methoxymethyl)-2,3,4,4a,5,6-hexahydro-1H-pyrazino[2,1-d][1,5]benzoxazepine-8-carbonitrile hydrochloride]
CLint scaled at 0.5 μM [1, 5]: 83.3 to 833 mL/min/kg | EC50 [2, 6]: 20 to 200 nM | Emax [2]: > 70% | Selectivity over 5-HT2A [3]: +++ (>100) | Selectivity over 5-HT2B [4]: + (from 10 to 30)

COC[C@@H]1C[C@@H]2CNCCN2c2cc(F)cc(C#N)c2O1.Cl [Example 13, (4aR,6S)-10-Fluoro-6-(methoxymethyl)-2,3,4,4a,5,6-hexahydro-1H-pyrazino[2,1-d][1,5]benzoxazepine-8-carbonitrile hydrochloride]
CLint scaled at 0.5 μM [1, 5]: < 83.3 mL/min/kg | EC50 [2, 6]: 20 to 200 nM | Emax [2]: > 70% | Selectivity over 5-HT2A [3]: +++ (>100) | Selectivity over 5-HT2B [4]: ++ (from >30 to 100)

COC[C@@H]1C[C@@H]2CNCCN2c2c(F)ccc(Cl)c2O1.O=C(O)/C=C/C(=O)O [Example 15, (4aR,6S)-8-Chloro-11-fluoro-6-(methoxymethyl)-2,3,4,4a,5,6-hexahydro-1H-pyrazino[2,1-d][1,5]benzoxazepine; fumaric acid]
CLint scaled at 0.5 μM [1, 5]: < 83.3 mL/min/kg | EC50 [2, 6]: < 20 nM | Emax [2]: > 70% | Selectivity over 5-HT2A [3]: +++ (>100) | Selectivity over 5-HT2B [4]: +++ (>100)
